# According to patent US12152038B2, “Vasopressin receptor antagonists and products and methods related thereto” (Neumora Therapeutics, Inc., priority 2017, dated 2024):
# Biological target: T1, human Arginine Vasopressin Receptor 1a (AVPR1a) (Homo sapiens, UniProt P37288)
# T1 construct: expressed in transfected cells; host or cells: CHO (CHO-AVPR1a, kept under G418 selection)
# Assay: Vasopressin V1a receptor antagonist assay (FLIPR calcium, CHO-AVPR1a cells)
# Assay type: cell-based
# How it was run: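 CHO cells expressing human AVPR1a were loaded with Calcium-6 dye and preincubated with compound for 15 min at 37° C. Cells were then challenged with AVP at its daily-determined EC80, and FLIPR fluorescence was read. Compounds were tested in duplicate as 10-point 1:3 dilutions from a top final concentration of 3 μM.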
# T1 sequence (P37288 whole entry): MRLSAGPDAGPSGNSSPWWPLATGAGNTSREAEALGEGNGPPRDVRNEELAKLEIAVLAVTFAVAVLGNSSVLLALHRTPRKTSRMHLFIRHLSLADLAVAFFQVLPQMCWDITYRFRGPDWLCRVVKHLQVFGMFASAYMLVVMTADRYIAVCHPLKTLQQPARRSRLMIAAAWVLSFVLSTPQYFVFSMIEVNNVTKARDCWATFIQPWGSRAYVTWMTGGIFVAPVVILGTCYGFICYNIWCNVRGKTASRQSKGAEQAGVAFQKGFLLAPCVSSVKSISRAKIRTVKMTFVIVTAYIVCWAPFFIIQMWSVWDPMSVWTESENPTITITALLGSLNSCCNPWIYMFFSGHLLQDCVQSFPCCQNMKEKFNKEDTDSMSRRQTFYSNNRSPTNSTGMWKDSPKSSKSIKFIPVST
row,SMILES,IC50
1,"CC1COc2cc(Cl)ccc2N1C(=O)N1CC2(C1)CN(c1cccnn1)C2 (single isomer, unassigned) [9-1-A]",≥ 1000 nM
2,"CC1CN(C(=O)N2CC3(C2)CN(c2ccc(F)cn2)C3)c2ccc(Cl)cc2O1 (single isomer, unassigned) [9-3-A]",< 100 nM
3,"CC1CN(C(=O)N2CC3(C2)CN(c2ccc(F)cn2)C3)c2ccc(F)cc2O1 (single isomer, unassigned) [9-4-B]",< 100 nM
4,"CC1COc2cc(F)ccc2N1C(=O)N1CC2(C1)CN(c1ccc(F)cn1)C2 (single isomer, unassigned) [12-1-B]",< 100 nM
5,"O=C(N1CC2(C1)CN(c1ccccn1)C2)N1CCC(O)c2cc(Cl)ccc21 (single isomer, unassigned) [13-2-A]",< 100 nM
6,"O=C(N1CC2(C1)CN(c1cnccn1)C2)N1CCC(O)c2cc(Cl)ccc21 (single isomer, unassigned) [13-3-A]",< 100 nM
7,"CC1COc2cc(F)ccc2N1C(=O)N1CC2(C1)CN(c1ncc(F)cn1)C2 (single isomer, unassigned) [18-4-B]",< 100 nM
8,"CC1COc2cc(F)c(F)cc2N1C(=O)N1CC2(C1)CN(c1cccnn1)C2 (single isomer, unassigned) [19-3-B]",< 100 nM
9,"CC1COc2cc(F)c(F)cc2N1C(=O)N1CC2(C1)CN(c1ccc(F)cn1)C2 (single isomer, unassigned) [19-5-B]",< 100 nM
10,"CC1COc2cc(Cl)ccc2N1C(=O)N1CC2(C1)CN(c1cccnc1)C2 (single isomer, unassigned) [20-1-B]",< 100 nM
11,"Cc1cncc(N2CC3(CN(C(=O)N4c5ccc(F)cc5OCC4C)C3)C2)n1 (single isomer, unassigned) [20-2-B]",< 100 nM
12,"Cc1cnc(N2CC3(CN(C(=O)N4c5ccc(Cl)cc5OCC4C)C3)C2)cn1 (single isomer, unassigned) [20-5-B]",< 100 nM
13,"CC1COc2cc(Cl)ccc2N1C(=O)N1CC2(C1)CN(c1cc(C#N)ccn1)C2 (single isomer, unassigned) [20-6-B]",< 100 nM
14,"Cc1nc(N2CC3(CN(C(=O)N4c5ccc(Cl)cc5OCC4C)C3)C2)ncc1F (single isomer, unassigned) [20-7-B]",< 100 nM
15,O=C(N1CC2(C1)CN(c1ncccn1)C2)N1CCOc2cc(Cl)ccc21 [1-4],< 100 nM
16,Cc1cccnc1N1CC2(CN(C(=O)N3CCOc4cc(Cl)ccc43)C2)C1 [1-5],< 100 nM
17,Cc1ccnc(N2CC3(CN(C(=O)N4CCOc5cc(Cl)ccc54)C3)C2)c1 [1-14],< 100 nM
18,COc1ccnc(N2CC3(CN(C(=O)N4CCOc5cc(Cl)ccc54)C3)C2)c1 [1-15],< 100 nM
19,O=C(N1CC2(C1)CN(c1ncccc1F)C2)N1CCc2cc(Cl)ccc21 [1-76],< 100 nM
20,O=C(N1CC2(C1)CN(c1ccccn1)C2)N1CCc2cc(Cl)ccc21 [1-77],< 100 nM
21,O=C(N1CC2(C1)CN(c1cccc(F)n1)C2)N1CCc2cc(Cl)ccc21 [1-78],< 100 nM
22,O=C(N1CC2(C1)CN(c1cc(F)ccn1)C2)N1CCc2cc(Cl)ccc21 [1-79],< 100 nM
23,O=C(N1CC2(C1)CN(c1cccnn1)C2)N1CCOc2cc(Cl)c(F)cc21 [1-81],< 100 nM

row,SMILES,IC50
1,"O=C(N1CC2(C1)CN(c1noc3ccccc13)C2)N1CCOc2cc(Cl)ccc21 [4-1, (6-(benzo[d]isoxazol-3-yl)-2,6-diazaspiro[3.3]heptan-2-yl)(7-chloro-2,3-dihydro-4H-benzo[b][1,4]oxazin-4-yl)methanone]",< 100 nM
2,O=C(N1CC2(C1)CN(c1ncc(F)cn1)C2)N1CCOc2cc(Cl)ccc21 [4-2],< 100 nM
3,"Cc1nc(N2CC3(CN(C(=O)N4CCOc5cc(Cl)ccc54)C3)C2)ncc1F [6-1, (7-chloro-2,3-dihydro-4H-benzo[b][1,4]oxazin-4-yl)(6-(5-fluoro-4-methylpyrimidin-2-yl)-2,6-diazaspiro[3.3]heptan-2-yl)methanone]",< 100 nM
4,O=C(N1CC2(C1)CN(c1cnccn1)C2)N1CCOCc2cc(Cl)ccc21 [8-13],< 100 nM
5,CC1Cc2cc(Cl)ccc2N1C(=O)N1CC2(C1)CN(c1ccc(F)cn1)C2 (stereo not shown) [8-16],< 100 nM
6,"CC1COc2cc(Cl)ccc2N1C(=O)N1CC2(C1)CN(c1cccnn1)C2 (stereo not shown) [9-1, (7-chloro-3-methyl-2,3-dihydro-4H-benzo[b][1,4]oxazin-4-yl)(6-(pyridazin-3-yl)-2,6-diazaspiro[3.3]heptan-2-yl)methanone]",< 100 nM
7,COc1ccc2c(c1)OCCN2C(=O)N1CC2(C1)CN(c1ccc(F)cn1)C2 [9-2],< 100 nM
8,CC1CN(C(=O)N2CC3(C2)CN(c2ccc(F)cn2)C3)c2ccc(Cl)cc2O1 (stereo not shown) [9-3],< 100 nM
9,O=C(N1CC2(C1)CN(c1ccc(F)cn1)C2)N1CCOc2cc(F)c(F)cc21 [9-6],< 100 nM
10,"CCC1COc2cc(Cl)ccc2N1C(=O)N1CC2(C1)CN(c1ccccn1)C2 (stereo not shown) [11-1, (7-chloro-3-ethyl-2,3-dihydro-4H-benzo[b][1,4]oxazin-4-yl)(6-(pyridin-2-yl)-2,6-diazaspiro[3.3]heptan-2-yl)methanone]",< 100 nM
11,"CC1COc2cc(F)ccc2N1C(=O)N1CC2(C1)CN(c1ccc(F)cn1)C2 (stereo not shown) [12-1, (7-fluoro-3-methyl-2,3-dihydro-4H-benzo[b][1,4]oxazin-4-yl)(6-(5-fluoropyridin-2-yl)-2,6-diazaspiro[3.3]heptan-2-yl)methanone]",< 100 nM
12,O=C(N1CC2(C1)CN(c1cnccn1)C2)N1CCC(O)c2cc(Cl)ccc21 (stereo not shown) [13-3],< 100 nM
13,"O=C(N1CC2(C1)CN(c1ccc(F)cn1)C2)N1CCC(F)c2cc(Cl)ccc21 (stereo not shown) [14-1, (6-chloro-4-fluoro-3,4-dihydroquinolin-1(2H)-yl)(6-(5-fluoropyridin-2-yl)-2,6-diazaspiro[3.3]heptan-2-yl)methanone]",< 100 nM
14,"CC1COc2cc(F)ccc2N1C(=O)N1CC2(C1)CN(c1ncccn1)C2 (stereo not shown) [18-1, (7-fluoro-3-methyl-2,3-dihydro-4H-benzo[b][1,4]oxazin-4-yl)(6-(pyrimidin-2-yl)-2,6-diazaspiro[3.3]heptan-2-yl)methanone]",< 100 nM
15,"CC1COc2cc(F)c(F)cc2N1C(=O)N1CC2(C1)CN(c1ncccn1)C2 (stereo not shown) [19-1, (6,7-difluoro-3-methyl-2,3-dihydro-4H-benzo[b][1,4]oxazin-4-yl)(6-(pyrimidin-2-yl)-2,6-diazaspiro[3.3]heptan-2-yl)methanone]",< 100 nM
16,CC1COc2cc(Cl)c(F)cc2N1C(=O)N1CC2(C1)CN(c1ncccn1)C2 (stereo not shown) [19-2],< 100 nM
17,CC1COc2cc(F)c(F)cc2N1C(=O)N1CC2(C1)CN(c1cccnn1)C2 (stereo not shown) [19-3],< 100 nM
18,CC1COc2cc(Cl)c(F)cc2N1C(=O)N1CC2(C1)CN(c1cccnc1)C2 (stereo not shown) [19-6],< 100 nM
19,"CC1COc2cc(Cl)ccc2N1C(=O)N1CC2(C1)CN(c1cccnc1)C2 (stereo not shown) [20-1, (7-chloro-3-methyl-2,3-dihydro-4H-benzo[b][1,4]oxazin-4-yl)(6-(pyridin-3-yl)-2,6-diazaspiro[3.3]heptan-2-yl)methanone]",< 100 nM
20,CC1COc2cc(Cl)ccc2N1C(=O)N1CC2(C1)CN(c1cc(C#N)ccn1)C2 (stereo not shown) [20-6],< 100 nM
21,Cc1nc(N2CC3(CN(C(=O)N4c5ccc(Cl)cc5OCC4C)C3)C2)ncc1F (stereo not shown) [20-7],< 100 nM
22,Cc1ccnc(N2CC3(CN(C(=O)N4c5ccc(Cl)cc5OCC4C)C3)C2)n1 (stereo not shown) [20-12],< 100 nM
23,Cc1cnc(N2CC3(CN(C(=O)N4c5ccc(Cl)cc5OCC4C)C3)C2)nc1 (stereo not shown) [20-13],< 100 nM
